What all share (type): in vivo
The subject of test [1] is common sowthistle (Sonchus oleraceous). The experiment in a line: Test G pre/postemergence. The procedure, abridged:
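Test chemicals in a non-phytotoxic solvent blend with surfactant are applied to soil after seeding or to foliage of 2–18 cm seedlings. Greenhouse response is scored visually at 12–21 days on a 0 to 100 control scale.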

Test [2] relates to winter barley (Hordeum vulgare). Put plainly: Test D pre/postemergence. Conditions: scale 0 to 100 (100 = complete control). The procedure, abridged: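 Responses are visual ratings on a 0 to 100 scale, with 100 meaning complete control, taken 15 to 25 days after treatment in a controlled growth environment. Applications were pre- and postemergence (1- to 4-leaf plants) using a non-phytotoxic solvent formulation with surfactant.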

Test [3] relates to sugarcane (Saccharum officinarum). Put plainly: Test G sugarcane pre/postemergence. Conditions: Postemergence, scale 0 to 100. The text has this: Also at a different time, seed pieces (nodes) of sugarcane (Saccharum officinarum) were planted and treated preemergence and/or postemergence with some of the test chemicals formulated in the same manner. Treated plants and controls were maintained in a greenhouse for 14 days, after which time the treated plants were compared to controls and visually evaluated.
(§1) Plant response ratings, summarized in Table G, are based on a scale of 0 to 100 where 0 is no effect and 100 is complete control. A dash (-) response means no test result.

Test [4] relates to sulfonylurea herbicide-resistant (SU-resistant) catchweed bedstraw (GALAP; Galium aparine). Put plainly: Test K postemergence. To be noted: 15 days. Here is the method:
(§2) Seeds of plant species selected from sulfonylurea herbicide-susceptible (SU-susceptible) and sulfonylurea herbicide-resistant (SU-resistant) catchweed bedstraw (GALAP; Galium aparine) and wheat (TRZAW; Triticum aestivum) were treated with postemergence applications of test chemicals formulated in a non-phytotoxic solvent mixture which included a surfactant. Plants were treated at the 2-3 leaf stage and 2 whorl stage for wheat and catchweed bedstraw, respectively. Treated plants and controls were maintained in a controlled growth environment for 15 days after which time all species were compared to controls and visually evaluated. Plant response ratings, summarized in Table K, are based on a scale of 0 to 100 where 0 is no effect and 100 is complete control. A dash (-) response means no test result.

In test [5] the test system is sulfonylurea herbicide-susceptible (SU-susceptible) catchweed bedstraw (GALAP; Galium aparine). Put plainly: Test K postemergence. To be noted: 15 days. Here is the method: as §2
Test [6] concerns wheat (TRZAW; Triticum aestivum). The experiment in a line: Test K postemergence. Conditions: 15 days. The method, then:
as §2

The subject of test [7] is grape (Vitus vinifera) vines. The experiment in a line: Test G post-directed application. To be noted: 1500 g ai/ha, scale 0 to 100. Here is the method:
(§3) At a different time, established container-grown grape (Vitus vinifera) vines, and olive (Olea europaea) and orange (Citrus sinensis) trees were treated with some of the test chemicals formulated in the same manner and applied to the soil surface and the lower 5 cm of the plant vines or trunks (post-directed application). Plants ranged in height from 30 to 100 cm. The applications were made using a hand sprayer delivering a volume of 990 L/ha. Treated plants and controls were maintained in a greenhouse for 28 days, after which time the treated plants were compared to controls and visually evaluated.
as §1

Test [8] deals with olive (Olea europaea) trees. Put plainly: Test G post-directed application. To be noted: 900 g ai/ha, scale 0 to 100. The method, then: as §3, §1
Test [9] deals with orange (Citrus sinensis) trees. The experiment in a line: Test G post-directed application. Conditions: 1500 g ai/ha, scale 0 to 100. Here is the method:
as §3, §1

The mark [10] stands for this setting: Postemergence, 16 g ai/ha, scale 0 to 100.
Where [11] appears, read: Postemergence, 31 g ai/ha, scale 0 to 100.
Setting [12] is: Postemergence, 62 g ai/ha, scale 0 to 100.
Setting [13] is: Preemergence, 16 g ai/ha, scale 0-100.
[14] abbreviates: Preemergence, 31 g ai/ha, scale 0-100.
Where [15] appears, read: Preemergence, 62 g ai/ha, scale 0-100.
[16] abbreviates: Postemergence, 250 g ai/ha, scale 0 to 100.
[17] abbreviates: Postemergence, 125 g ai/ha, scale 0 to 100.
Setting [18] is: Preemergence, 125 g ai/ha, scale 0-100.
The mark [19] stands for this setting: Preemergence, 250 g ai/ha, scale 0-100.

Each structure is given as a SMILES string.

On to `CCOC(=O)c1nc(-c2ccc(Cl)cc2)nc(N)c1Cl` [Compound 64, ethyl 6-amino-5-chloro-2-(4-chlorophenyl)-4-pyrimidinecarboxylate], for which the “Plant response rating, Sowthistle” value came out at 65 in [1] (Postemergence, 8 g ai/ha, scale 0 to 100); 80 in test [1] (setting [10]); 80 in test [1] (setting [11]); 80 in [1] (setting [12]); 0 in test [1] (Preemergence, 8 g ai/ha, scale 0-100); 0 in test [1] (setting [13]). Besides, the “Plant response rating, Sowthistle” value is reported as 35 in test [1] (setting [14]) and 90 in test [1] (setting [15]).

As for `Nc1nc(C2CC2)nc(C=O)c1Br` [Compound 26], the “Plant response rating, Barley” value in test [2] (Postemergence, 125 g ai/ha) was determined as 45; in [2] (Postemergence, 250 g ai/ha), 50; in test [2] (Preemergence, 125 g ai/ha) it was 25; in test [2] (Preemergence, 250 g ai/ha), 35.

For the molecule `Nc1nc(C2CC2)nc(C(=O)[O-])c1Cl.[Na+]` [Compound 77, 6-amino-5-chloro-2-cyclopropyl-4-pyrimidinecarboxylic acid monosodium salt], the “Plant response rating, Sowthistle” value in test [1] (setting [16]) was found to be 95; in test [1] (setting [10]), 75; in [1] (setting [11]), 90; in test [1] (setting [12]) it was 90; in test [1] (setting [17]), 95; in test [1] (setting [13]), 80. Besides, the “Plant response rating, Sowthistle” value in test [1] (setting [14]), in test [1] (setting [15]), in test [1] (setting [18]) and in test [1] (setting [19]) was 100 each time.

Regarding `COC(=O)c1nc(C2CC2)nc(N)c1Cl` [Compound 9, methyl 6-amino-5-chloro-2-cyclopropyl-4-pyrimidinecarboxylate], the “Plant response rating, Sugarcane” value in [3] (250 g ai/ha) was determined as 7; in test [3] (500 g ai/ha) it was 17; in test [3] (31 g ai/ha), 0; in test [3] (62 g ai/ha) it was 0; in test [3] (125 g ai/ha), 0. The “Plant response rating (0 to 100 scale)” value in test [4] (4 g a.i./ha), in [4] (8 g a.i./ha), in test [4] (16 g a.i./ha), in [4] (31 g a.i./ha), in test [4] (62 g a.i./ha) and in test [4] (125 g a.i./ha) was 100 each time. Also, the “Plant response rating (0 to 100 scale)” value in test [5] (4 g a.i./ha) is 75; in test [5] (8 g a.i./ha), 100; in test [5] (16 g a.i./ha), 100; in test [5] (31 g a.i./ha), 100; in test [5] (62 g a.i./ha), 100; in test [5] (125 g a.i./ha) it was 100. The “Plant response rating (0 to 100 scale)” value in test [6] (4 g a.i./ha) is 0; in test [6] (8 g a.i./ha), 20; in test [6] (16 g a.i./ha), 25; in test [6] (31 g a.i./ha), 38; in test [6] (62 g a.i./ha), 38; in test [6] (125 g a.i./ha) it was 40.

Regarding `CCOC(=O)c1nc(C2CC2)nc(N)c1Cl` [Compound 4, ethyl 6-amino-5-chloro-2-cyclopropyl-4-pyrimidinecarboxylate], the “Plant response rating, Sowthistle” value in [1] (setting [15]) was 100; in [1] (setting [18]), 100; in [1] (setting [19]), 100; in [1] (Preemergence, 500 g ai/ha, scale 0 to 100), 100. Further, the “Plant response rating, Grape” value in [7] came out at 100. The “Plant response rating, Olive” value in test [8] turned out to be 50. The “Plant response rating, Orange” value in test [9] came out at 75.

Turning to `COC(=O)c1nc(C2CC2)nc(NO)c1Br` [Compound 35], the “Plant response rating, Barley” value in test [2] (Postemergence, 62 g ai/ha) came to 65; in [2] (Postemergence, 125 g ai/ha), 65; in test [2] (Postemergence, 250 g ai/ha), 70; in test [2] (Preemergence, 62 g ai/ha), 40; in [2] (Preemergence, 125 g ai/ha), 45; in test [2] (Preemergence, 250 g ai/ha), 45.

For `Nc1nc(C2CC2)nc(C(=O)OCc2ccccc2)c1Br` [Compound 22, phenylmethyl 6-amino-5-bromo-2-cyclopropyl-4-pyrimidinecarboxylate], the “Plant response rating, Sowthistle” value in test [1] (setting [16]) was determined as 100; in test [1] (setting [10]) it was 75; in test [1] (setting [11]), 85; in [1] (setting [12]), 95; in [1] (setting [17]), 100; in test [1] (setting [13]), 35. The “Plant response rating, Sowthistle” value in test [1] (setting [14]) came to 75; in [1] (setting [15]), 90; in test [1] (setting [18]) it was 100; in test [1] (setting [19]), 100.

In the case of `COC(=O)c1nc(C2CC2C)nc(N)c1Br` (centres unmarked) [Compound 28], the “Plant response rating, Barley” value in test [2] (Postemergence, 62 g ai/ha) came to 20; in test [2] (Postemergence, 125 g ai/ha), 40; in test [2] (Postemergence, 250 g ai/ha), 40; in [2] (Preemergence, 62 g ai/ha), 10; in [2] (Preemergence, 125 g ai/ha) it was 25; in test [2] (Preemergence, 250 g ai/ha), 45.

For the molecule `CCOC(=O)Cc1nc(C2CC2)nc(N=CN(C)C)c1Br` [Compound 33], the “Plant response rating, Barley” value in test [2] (Postemergence, 62 g ai/ha) is on record as 45; in test [2] (Postemergence, 125 g ai/ha), 45; in [2] (Postemergence, 250 g ai/ha) it was 45; in test [2] (Preemergence, 62 g ai/ha) it was 10; in [2] (Preemergence, 125 g ai/ha), 35; in test [2] (Preemergence, 250 g ai/ha) it was 45.

(Values after patent US8802597B2, “Herbicidal pyrimidines” (E I du Pont de Nemours and Company, priority 2003, dated 2014).)
